Test results as given in patent US9707250B2, “Hydrophobically modified antisense oligonucleotides comprising a triple alkyl chain” (INSTITUT NATIONAL DE LA SANTE ET DE LA RECHERCHE MEDICALE …, priority 2013, dated 2017).
Oligonucleotides are written 5' to 3', each unit as a sugar letter and its base; * is a phosphorothioate linkage, no mark a phosphodiester; rarer units and linkages stand in square brackets, end groups in braces. Plain capitals give the bases only. {(C18)3CCH2} = lipid of three C18 alkyl chains on a quaternary carbon, linked through CH2-O-phosphodiester; {3LON} = triple hydrocarbon-chain lipid moiety added by triple chain phosphoramidite 4; d = 2'-deoxy (DNA)

Tests used:
PC-3 cells = test: MTT assay, in vitro growth inhibitory effects; assay type: cell-based, human; conditions: transfection in the absence of Oligofectamine
Procedure: The CR prostate cancer cell line PC-3 was purchased from the American Type Culture Collection (Rockville, Md., USA). The cells were maintained in Dulbecco's Modified Eagle's Medium (Invitrogen, Cergy Pontoise, France), supplemented with 10% fetal calf serum (FCS).
(§1) Prostatic cell line were transfected with LASO#15 at various concentrations (from 30 nM to 100 nM), in OptiMEM® medium (Invitrogen), without serum and in the absence of Oligofectamine™ transfection reagent (Invitrogen).
(§2) Serum was added 4 hours after transfection. Two or three days after transfection, the level of TCTP protein expression and GAPDH (used as housekeeping gene) were determined by performing western blotting, and the in vitro growth inhibitory effects of LASO#15 on PC-3 cells were assessed using an MTT assay.
The MTT assay was performed as described previously (Rocchi et al., 2004, Cancer Res. 64:6595-602).

TCTP protein = TCTP protein expression by western blot after transfection without Oligofectamine; assay type: cell-based, human; conditions: PC-3 prostatic cells; absence of Oligofectamine; 30 nM to 100 nM, in particular 100 nM; two or three days after transfection; LASO#Scr negative control
Procedure: Lipid-conjugated oligonucleotide, LASO#15 was tested on TCTP protein expression using western-blot (LASO#Scr was used as negative control).
as §1, §2
Western Blot analysis was performed as described previously (Rocchi et al., 2004, Cancer Res. 64:6595-602) with 1:2000 rabbit TCTP polyclonal antibody (Abcam Inc., Cambridge, UK). Loading levels were normalized using 1:5000 rabbit anti-glyceraldehyde-3-phosphate dehydrogenase polyclonal (Abcam Inc.).

[1] = Aggregation behavior of LONs in aqueous media; assay type: physicochemical
Procedure: As true surfactants, LONs can self assemble in aqueous media. […] The latter could be HPLC-purified and characterized by MS. […] […] Aqueous samples containing LONs were studied under different conditions including pure water and aqueous suspensions of varying ionic strength and temperature (25-45° C.). All the LONs investigated, namely ^3LON-T15, yielded small spherical objects ranging from approximately 8 to 20 nm in diameter as characterized by DLS, transmission and scanning electronic microscopies (TEM and SEM). […] The micellar architecture of these assemblies can be explained based upon the molecular dimensions of 15 nucleobase-long LONs. Indeed, such molecules are flexible, with cone shape structure and dimensions compatible with the self-aggregation into spherical micelles.

[2] = Solubility of LONs in water; assay type: physicochemical; conditions: adenosine-containing versus thymidine LON
Procedure: At this point, the crude ^3LON-T15 and ^3LON-A15 behave quite differently. […] The LON eluted after ca. 42 min under these conditions. Fractions containing the LON were pooled and evaporated to dryness. The LON was dissolved in water and dried again two times to remove all residual traces of buffer. Yield of final ^3LON-T15 was excellent (40%).
(§3) As true surfactants, LONs can self assemble in aqueous media. […] The latter could be HPLC-purified and characterized by MS. […] Consequently, dynamic light scattering, transmission electron microscopy and SEM experiments were carried out with the solutions of one purified LON only. Aqueous samples containing LONs were studied under different conditions including pure water and aqueous suspensions of varying ionic strength and temperature (25-45° C.). All the LONs investigated, namely ^3LON-T15, yielded small spherical objects ranging from approximately 8 to 20 nm in diameter as characterized by DLS, transmission and scanning electronic microscopies (TEM and SEM). […] The micellar architecture of these assemblies can be explained based upon the molecular dimensions of 15 nucleobase-long LONs. Indeed, such molecules are flexible, with cone shape structure and dimensions compatible with the self-aggregation into spherical micelles.

[3] = Size of LON aggregates by DLS, TEM and SEM; assay type: physicochemical
Procedure: Transmission Electron Microscopy (TEM). Samples were imaged by negative staining microscopy with a Hitachi H 7650 electron microscope. Samples containing LONs (concentrations and mean sizes are indicated in TEM images) were transferred to a carbon-coated copper grid for ten minutes. The sample was then dried and stained with 2.5% (W/W) of uranyl acetate in water for five minutes.
Scanning Electron Microscopy (SEM). Samples were examined at an accelerating voltage of 10 kV. Typically […] of sample containing the LON aggregates were dried spread on polished stainless steel platelets and then coated with a 6-10 nm layer of gold-palladium alloy under vacuum with a sputter Coater Balzers SCD050. Observations were made with a Philips XL30S FEG instrument.
as §3

**Q.** Which results are given for “(C18)3CCH2—O—P(═O)(—O[−1])-O-5′-AACTTGTTTCCTGCAGGTGA-3′-OH (antisense {(C18)3CCH2}-dAdAdCdTdTdGdTdTdTdCdCdTdGdCdAdGdGdTdGdA) [LASO#15]”?
**A.** growth of PC-3 cells (MTT assay) (PC-3 cells): inhibiting the growth of the PC-3 cells; TCTP protein expression (western blot) (TCTP protein): specific inhibition of TCTP protein

**Q.** For “^3LON-A15: Triple chain polyA 15mer; dA15 (SEQ ID NO: 32) coupled at its 5′ end with triple chain phosphoramidite 4 (DNA AAAAAAAAAAAAAAA; DNA, 5' {3LON}, backbone not given here)”, which “aggregation after cleavage and deprotection” value ([1]; crude LON) is on record?
**A.** immediate and irreversible aggregation

**Q.** And the “solubility in water (relative)” value [2]?
**A.** less soluble in water than their thymidine counterparts

**Q.** Which aggregation on storage ([1]; after storage at −20° C.) does the source give for “^3LON-T15: Triple chain polyT 15mer; dT15 (SEQ ID NO: 33) coupled at its 5′ end with triple chain phosphoramidite 4” here?
**A.** slow aggregation tendency

**Q.** And the “effect of temperature on aggregate size” value ([3]; 25-45° C. range)?
**A.** poorly affected by temperature

**Q.** What about the “sensitivity of aggregate size to ionic strength” value ([3]; DLS in water) of the same substance?
**A.** poorly sensitive to ionic strength

**Q.** What about the “change of micelle core on hybridization” value ([3]; DLS, hybridization of the complementary dA15, not observed with ncDNA) of the same substance?
**A.** contraction of the core micelle is observed
